From ChEMBL document CHEMBL1129603, “Synthesis and biological activity of metabolites of the antidiabetic, antihyperglycemic agent pioglitazone” (1996)

organism: Mus musculus; assay: Compound was evaluated for Antihyperglycemic activity in KKAy mice, glucose level for the treated group (T) over the anti-hyperglycaemic activity; format: functional

SMILES | T/C
CCc1ccc(C(O)COc2ccc(CC3SC(=O)NC3=O)cc2)nc1 (stereo unspecified) | 0.78
CCc1ccc(CCOc2ccc(CC3SC(=O)NC3=O)cc2)nc1 (stereo unspecified) [PIOGLITAZONE] | 0.49
O=C(O)Cc1ccc(CCOc2ccc(CC3SC(=O)NC3=O)cc2)nc1 (stereo unspecified) | 0.91
CC(=O)c1ccc(CCOc2ccc(CC3SC(=O)NC3=O)cc2)nc1 (stereo unspecified) | 0.74
CC(O)c1ccc(CCOc2ccc(CC3SC(=O)NC3=O)cc2)nc1 (stereo unspecified) [LERIGLITAZONE] | 0.74
CCc1ccc(C(=O)COc2ccc(CC3SC(=O)NC3=O)cc2)nc1 (stereo unspecified) [MITOGLITAZONE] | 0.39
